Measured values as given in paper PMC6130761, “Isolation, crystal structure determination and cholinesterase inhibitory potential of isotalatizidine hydrate from Delphinium denudatum” (Pharmaceutical Biology, 2016).

Assays:
[1] = biological target: T1, AChE (Electric-eel EC 3.1.1.7) (Electrophorus electricus, UniProt O42275); experiment: biochemical; assay type: biochemical; details: for Type of inhibition (AChE): Lineweaver-Burk, Dixon plots and replots, 50, 75, 100 μM of compound 1
T1 construct: purchased Sigma Aldrich
T1 sequence (O42275 24-633): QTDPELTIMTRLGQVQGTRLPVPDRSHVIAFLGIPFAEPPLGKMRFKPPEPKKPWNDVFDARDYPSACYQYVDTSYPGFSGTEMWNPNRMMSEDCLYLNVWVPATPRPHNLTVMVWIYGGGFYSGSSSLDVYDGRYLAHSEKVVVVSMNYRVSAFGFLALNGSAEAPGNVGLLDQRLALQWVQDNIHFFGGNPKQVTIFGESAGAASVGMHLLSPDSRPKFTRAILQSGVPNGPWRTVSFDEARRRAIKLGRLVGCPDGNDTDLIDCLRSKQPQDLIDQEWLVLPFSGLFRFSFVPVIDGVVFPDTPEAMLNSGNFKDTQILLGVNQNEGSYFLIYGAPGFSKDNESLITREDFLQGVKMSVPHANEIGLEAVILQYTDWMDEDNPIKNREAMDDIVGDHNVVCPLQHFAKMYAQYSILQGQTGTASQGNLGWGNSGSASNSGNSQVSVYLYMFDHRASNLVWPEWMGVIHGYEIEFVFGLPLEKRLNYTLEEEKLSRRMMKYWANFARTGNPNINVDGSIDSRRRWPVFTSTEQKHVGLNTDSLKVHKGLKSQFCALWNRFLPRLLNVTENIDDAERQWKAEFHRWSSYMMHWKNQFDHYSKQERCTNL

[2] = biological target: T2, BChE (horse-serum E.C 3.1.1.8) (Equus caballus, UniProt P81908); experiment: Cholinesterase inhibition assay (Ellman spectrophotometric method), BChE; assay type: biochemical; details: for Type of inhibition (BChE): Lineweaver-Burk, Dixon plots and replots, 50, 75, 100 μM of compound 1
T2 construct: purchased Sigma Aldrich; host or cells: horse serum
T2 sequence (P81908 whole entry): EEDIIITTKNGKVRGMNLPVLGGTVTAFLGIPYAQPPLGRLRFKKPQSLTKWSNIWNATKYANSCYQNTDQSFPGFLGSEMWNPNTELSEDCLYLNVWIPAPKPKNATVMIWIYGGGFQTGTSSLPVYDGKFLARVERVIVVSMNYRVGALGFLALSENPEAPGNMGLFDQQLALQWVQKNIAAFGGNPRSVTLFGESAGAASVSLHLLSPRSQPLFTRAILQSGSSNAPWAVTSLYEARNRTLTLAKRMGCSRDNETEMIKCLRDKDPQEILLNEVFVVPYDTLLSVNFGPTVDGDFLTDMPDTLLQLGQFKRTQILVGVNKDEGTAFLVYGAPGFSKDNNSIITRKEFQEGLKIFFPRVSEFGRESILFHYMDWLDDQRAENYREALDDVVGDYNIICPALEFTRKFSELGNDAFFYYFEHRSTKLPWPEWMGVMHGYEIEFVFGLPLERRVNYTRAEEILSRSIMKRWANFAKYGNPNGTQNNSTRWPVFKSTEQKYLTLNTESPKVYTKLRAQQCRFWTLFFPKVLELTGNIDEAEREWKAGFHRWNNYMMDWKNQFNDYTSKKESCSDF
Experimental: Enzyme (AChE/BChE) inhibition activities were measured by spectrophotometric method as described in literature (Ellman et al. [1961]). Reported protocol and assay conditions were followed throughout (Rocha et al. [1993]). AChI and AChCl substrates were used to assay AChE and BChE, respectively. DTNB was used as reagent for the measurement of cholinesterase activity. Solution containing DTNB (0.2 mM) in 62 mM sodium phosphate buffer (pH 8.0, 880 μL), test compound solution (40 μL) and AChE or BChE solution (40 μL) were mixed, incubated for 15 min (25 °C). AChE or BChE (40 μL), were added to initiate the respective solution. The hydrolysis of AChE and BChE were noted by naked eye due to formation of yellow colour 5-thio-2-nitrobenzoate anion at a wavelength of 412 nm (15 min). Reactions were performed in triplicate in a BMS spectrophotometer (USA) and the results presented are average values.

[3] = listed as isotalatazidine hydrate
[4] = listed as isotalatizidine hydrate

CCN1CC2(COC)CCC(O)C34C5CC6C(OC)CC(O)(C(CC23)C14)C5C6O (centres unmarked) [Isotalatizidine hydrate, isotalatizidine hydrate]
Type of inhibition (AChE) [1]: Competitive | Type of inhibition (AChE) [1, 3]: competitive type inhibition | Type of inhibition (AChE) [1, 4]: competitive inhibitor | IC50 ([1]; standard error of mean of five assays, DTNB, pH 8.0, 25 °C, read-out: AChE ± SEM (IC50)): 12.1 ± 0.43 µM | Type of inhibition (BChE) [2]: Competitive | Type of inhibition (BChE) [2, 3]: competitive type inhibition | Type of inhibition (BChE) [2, 4]: competitive inhibitor | IC50 ([2]; standard error of mean of five assays, DTNB, pH 8.0, 25 °C, read-out: BChE ± SEM (IC50)): 21.4 ± 0.23 µM
